Data from US8710065B2, “Tricyclic inhibitors of kinases” (AbbVie Inc., priority 2011, dated 2014).

Target: T1, GST-tagged-Wee1 kinase (Homo sapiens, UniProt P30291)
T1 construct: purchased Carnabio (Carna Biosciences) 05-177
Test: Wee1 time-resolved fluorescence equilibrium binding assay (displacement of Oregon Green-labeled ATP-competitive kinase probe)
Conditions: read-out: Wee-1 inhibition (Ki)
Method in brief: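 Ki values derive from competitive displacement, under equilibrium, of a fast-reversible ATP-site Oregon Green kinase probe from GST-tagged Wee1, detected by time-resolved fluorescence.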

T1 sequence (P30291 whole entry): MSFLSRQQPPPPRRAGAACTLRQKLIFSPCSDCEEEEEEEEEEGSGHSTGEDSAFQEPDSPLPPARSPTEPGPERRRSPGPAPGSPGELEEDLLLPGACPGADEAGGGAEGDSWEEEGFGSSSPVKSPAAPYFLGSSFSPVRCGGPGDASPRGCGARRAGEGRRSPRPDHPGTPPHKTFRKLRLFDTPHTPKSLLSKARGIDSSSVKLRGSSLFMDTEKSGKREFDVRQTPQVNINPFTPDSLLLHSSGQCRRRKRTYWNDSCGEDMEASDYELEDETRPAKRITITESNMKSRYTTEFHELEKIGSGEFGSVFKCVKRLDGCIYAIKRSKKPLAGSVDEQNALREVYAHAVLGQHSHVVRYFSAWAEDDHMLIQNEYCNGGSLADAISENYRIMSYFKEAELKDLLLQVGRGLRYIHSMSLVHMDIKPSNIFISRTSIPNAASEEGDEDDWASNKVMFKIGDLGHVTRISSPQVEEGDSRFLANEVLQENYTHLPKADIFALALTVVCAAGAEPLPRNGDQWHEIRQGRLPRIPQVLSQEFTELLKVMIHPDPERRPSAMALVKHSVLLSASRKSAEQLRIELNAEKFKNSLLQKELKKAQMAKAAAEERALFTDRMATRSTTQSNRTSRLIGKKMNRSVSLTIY

Structure (SMILES)	Ki
CN1Cc2cc(Nc3ncc4c(=O)n(-c5c(F)cccc5Cl)c5nccn5c4n3)ccc2C1(C)C [Example 209, 6-(2-chloro-6-fluorophenyl)-2-[(1,1,2-trimethyl-2,3-dihydro-1H-isoindol-5-yl)amino]imidazo[1,2-a]pyrimido[5,4-e]pyrimidin-5(6H)-one]	< 10 nM
O=c1c2cnc(Nc3ccc4c(c3)CN(S(=O)(=O)C3CC3)CC43CC3)nc2n2ccnc2n1-c1c(Cl)cccc1Cl [Example 285, 2-{[2′-(cyclopropylsulfonyl)-2′,3′-dihydro-1′H-spiro[cyclopropane-1,4′-isoquinolin]-7′-yl]amino}-6-(2,6-dichlorophenyl)imidazo[1,2-a]pyrimido[5,4-e]pyrimidin-5(6H)-one]	< 10 nM
CCN(CCN(C)C)c1ccc(Nc2ncc3c(=O)n(-c4c(Cl)cccc4Cl)c4nccn4c3n2)cc1 [Example 327, 6-(2,6-dichlorophenyl)-2-[(4-{[2-(dimethylamino)ethyl](ethyl)amino}phenyl)amino]imidazo[1,2-a]pyrimido[5,4-e]pyrimidin-5(6H)-one]	< 10 nM
O=c1c2cnc(Nc3ccc4cn[nH]c4c3)nc2n2ccnc2n1-c1c(Cl)cccc1Cl [Example 199, 6-(2,6-dichlorophenyl)-2-(1H-indazol-6-ylamino)imidazo[1,2-a]pyrimido[5,4-e]pyrimidin-5(6H)-one]	< 10 nM
O=c1c2cnc(Nc3ccc(C4CCNC4)cc3)nc2n2ccnc2n1-c1ccccc1Cl (stereo not drawn) [Example 72, 6-(2-chlorophenyl)-2-{[4-(pyrrolidin-3-yl)phenyl]amino}imidazo[1,2-a]pyrimido[5,4-e]pyrimidin-5(6H)-one]	< 10 nM
CN1CCCN(c2ccc(Nc3ncc4c(=O)n(-c5c(Cl)cccc5Cl)c5nccn5c4n3)cc2CO)CC1 [Example 121, 6-(2,6-dichlorophenyl)-2-{[3-(hydroxymethyl)-4-(4-methyl-1,4-diazepan-1-yl)phenyl]amino}imidazo[1,2-a]pyrimido[5,4-e]pyrimidin-5(6H)-one]	< 10 nM
Cc1cc(Nc2ncc3c(=O)n(-c4c(F)cccc4Cl)c4nccn4c3n2)ccc1N1CCCN(C)CC1 [Example 96, 6-(2-chloro-6-fluorophenyl)-2-{[3-methyl-4-(4-methyl-1,4-diazepan-1-yl)phenyl]amino}imidazo[1,2-a]pyrimido[5,4-e]pyrimidin-5(6H)-one]	< 10 nM
CN1Cc2cc(Nc3ncc4c(=O)n(-c5ccccc5Cl)c5nccn5c4n3)ccc2C2(CC2)C1 [Example 4, 6-(2-chlorophenyl)-2-[(2′-methyl-2′,3′-dihydro-1′H-spiro[cyclopropane-1,4′-isoquinolin]-7′-yl)amino]imidazo[1,2-a]pyrimido[5,4-e]pyrimidin-5(6H)-one]	< 10 nM
O=c1c2cnc(Nc3ccc(N4CCNCC4)nc3)nc2n2ccnc2n1-c1c(Cl)cc(F)cc1Cl [Example 173, 6-(2,6-dichloro-4-fluorophenyl)-2-{[6-(piperazin-1-yl)pyridin-3-yl]amino}imidazo[1,2-a]pyrimido[5,4-e]pyrimidin-5(6H)-one]	< 10 nM
CN(C)CCNc1ccc(Nc2ncc3c(=O)n(-c4ccccc4Cl)c4nccn4c3n2)cc1 [Example 234, 6-(2-chlorophenyl)-2-[(4-{[2-(dimethylamino)ethyl]amino}phenyl)amino]imidazo[1,2-a]pyrimido[5,4-e]pyrimidin-5(6H)-one]	< 10 nM
O=c1c2cnc(Nc3cc(F)c(N4CCNCC4)c(F)c3)nc2n2ccnc2n1-c1ccccc1Cl [Example 203, 6-(2-chlorophenyl)-2-{[3,5-difluoro-4-(piperazin-1-yl)phenyl]amino}imidazo[1,2-a]pyrimido[5,4-e]pyrimidin-5(6H)-one]	< 10 nM
O=c1c2cnc(Nc3ccc(OC4CCNCC4)cc3)nc2n2ccnc2n1-c1ccccc1Cl [Example 290, 6-(2-chlorophenyl)-2-{[4-(piperidin-4-yloxy)phenyl]amino}imidazo[1,2-a]pyrimido[5,4-e]pyrimidin-5(6H)-one]	< 10 nM
CC(C)N1CCN(c2ccc(Nc3ncc4c(=O)n(-c5c(Cl)cccc5Cl)c5nccn5c4n3)cc2F)CC1 [Example 155, 6-(2,6-dichlorophenyl)-2-({3-fluoro-4-[4-(propan-2-yl)piperazin-1-yl]phenyl}amino)imidazo[1,2-a]pyrimido[5,4-e]pyrimidin-5(6H)-one]	< 10 nM
O=c1c2cnc(Nc3cc(Cl)c(N4CCNCC4)c(C(F)(F)F)c3)nc2n2ccnc2n1-c1ccccc1Cl [Example 354, 6-(2-chlorophenyl)-2-{[3-chloro-4-(piperazin-1-yl)-5-(trifluoromethyl)phenyl]amino}imidazo[1,2-a]pyrimido[5,4-e]pyrimidin-5(6H)-one]	> 100 nM
O=c1c2cnc(Nc3ccc(N4CCN(c5ccc(F)cc5)CC4)cc3)nc2n2ccnc2n1-c1ccccc1Cl [Example 254, 6-(2-chlorophenyl)-2-({4-[4-(4-fluorophenyl)piperazin-1-yl]phenyl}amino)imidazo[1,2-a]pyrimido[5,4-e]pyrimidin-5(6H)-one]	10 to 100 nM
O=C(c1ccc(Nc2ncc3c(=O)n(-c4ccccc4Cl)c4nccn4c3n2)cc1)N1CCC(O)CC1 [Example 48, 6-(2-chlorophenyl)-2-({4-[(4-hydroxypiperidin-1-yl)carbonyl]phenyl}amino)imidazo[1,2-a]pyrimido[5,4-e]pyrimidin-5(6H)-one]	10 to 100 nM
O=c1c2cnc(Nc3ccc4c(c3)CNCC43CC3)nc2n2ccnc2n1-c1cccc(O)c1Cl [Example 278, 6-(2-chloro-3-hydroxyphenyl)-2-(2′,3′-dihydro-1′H-spiro[cyclopropane-1,4′-isoquinolin]-7′-ylamino)imidazo[1,2-a]pyrimido[5,4-e]pyrimidin-5(6H)-one]	< 10 nM
CN(C)[C@H]1CCN(c2ccc(Nc3ncc4c(=O)n(-c5c(Cl)cccc5Cl)c5nccn5c4n3)cc2)C1 [Example 315, 6-(2,6-dichlorophenyl)-2-({4-[(3S)-3-(dimethylamino)pyrrolidin-1-yl]phenyl}amino)imidazo[1,2-a]pyrimido[5,4-e]pyrimidin-5(6H)-one]	< 10 nM
CNC(=O)N1Cc2cc(Nc3ncc4c(=O)n(-c5c(F)cccc5Cl)c5nccn5c4n3)ccc2C2(CC2)C1 [Example 300, 7′-{[6-(2-chloro-6-fluorophenyl)-5-oxo-5,6-dihydroimidazo[1,2-a]pyrimido[5,4-e]pyrimidin-2-yl]amino}-N-methyl-1′H-spiro[cyclopropane-1,4′-isoquinoline]-2′(3′H)-carboxamide]	< 10 nM
CN(C)CCN1CCc2cc(Nc3ncc4c(=O)n(-c5c(Cl)cccc5Cl)c5nccn5c4n3)ccc21 [Example 119, 6-(2,6-dichlorophenyl)-2-({1-[2-(dimethylamino)ethyl]-2,3-dihydro-1H-indol-5-yl}amino)imidazo[1,2-a]pyrimido[5,4-e]pyrimidin-5(6H)-one]	< 10 nM
COC[C@H]1CCCN1c1ccc(Nc2ncc3c(=O)n(-c4ccccc4Cl)c4nccn4c3n2)cc1 [Example 251, 6-(2-chlorophenyl)-2-({4-[(2R)-2-(methoxymethyl)pyrrolidin-1-yl]phenyl}amino)imidazo[1,2-a]pyrimido[5,4-e]pyrimidin-5(6H)-one]	< 10 nM
CN1Cc2cc(Nc3ncc4c(=O)n(-c5c(Cl)cccc5Cl)c5nccn5c4n3)ccc2C2(CC2)C1 [Example 73, 6-(2,6-dichlorophenyl)-2-[(2′-methyl-2′,3′-dihydro-1′H-spiro[cyclopropane-1,4′-isoquinolin]-7′-yl)amino]imidazo[1,2-a]pyrimido[5,4-e]pyrimidin-5(6H)-one]	< 10 nM
CS(=O)(=O)N1Cc2cc(Nc3ncc4c(=O)n(-c5c(Cl)cccc5Cl)c5nccn5c4n3)ccc2C2(CC2)C1 [Example 206, 6-(2,6-dichlorophenyl)-2-{[2′-(methylsulfonyl)-2′,3′-dihydro-1′H-spiro[cyclopropane-1,4′-isoquinolin]-7′-yl]amino}imidazo[1,2-a]pyrimido[5,4-e]pyrimidin-5(6H)-one]	< 10 nM
O=c1c2cnc(Nc3ccc4c(c3)CCNC4)nc2n2ccnc2n1-c1c(Cl)cccc1Cl [Example 122, 6-(2,6-dichlorophenyl)-2-(1,2,3,4-tetrahydroisoquinolin-6-ylamino)imidazo[1,2-a]pyrimido[5,4-e]pyrimidin-5(6H)-one]	< 10 nM
O=c1c2cnc(Nc3ccc(N4CCNCC4)nc3)nc2n2ccnc2n1-c1ccccc1Cl [Example 81, 6-(2-chlorophenyl)-2-{[6-(piperazin-1-yl)pyridin-3-yl]amino}imidazo[1,2-a]pyrimido[5,4-e]pyrimidin-5(6H)-one]	< 10 nM
CN(C)CCNc1ccc(Nc2ncc3c(=O)n(-c4c(Cl)cccc4Cl)c4nccn4c3n2)cc1 [Example 284, 6-(2,6-dichlorophenyl)-2-[(4-{[2-(dimethylamino)ethyl]amino}phenyl)amino]imidazo[1,2-a]pyrimido[5,4-e]pyrimidin-5(6H)-one]	< 10 nM
O=c1c2cnc(Nc3ccc(OC[C@@H]4CCCN4)cc3)nc2n2ccnc2n1-c1ccccc1Cl [Example 76, 6-(2-chlorophenyl)-2-({4-[(2S)-pyrrolidin-2-ylmethoxy]phenyl}amino)imidazo[1,2-a]pyrimido[5,4-e]pyrimidin-5(6H)-one]	< 10 nM
Cc1cc(Nc2ncc3c(=O)n(-c4c(F)cccc4Cl)c4nccn4c3n2)ccc1N1CCCNCC1 [Example 141, 6-(2-chloro-6-fluorophenyl)-2-{[4-(1,4-diazepan-1-yl)-3-methylphenyl]amino}imidazo[1,2-a]pyrimido[5,4-e]pyrimidin-5(6H)-one]	< 10 nM
CCS(=O)(=O)N1Cc2cc(Nc3ncc4c(=O)n(-c5c(Cl)cccc5Cl)c5nccn5c4n3)ccc2C(C)(C)C1 [Example 320, 6-(2,6-dichlorophenyl)-2-{[2-(ethylsulfonyl)-4,4-dimethyl-1,2,3,4-tetrahydroisoquinolin-7-yl]amino}imidazo[1,2-a]pyrimido[5,4-e]pyrimidin-5(6H)-one]	< 10 nM
CS(=O)(=O)N1CC2(CCN(c3ccc(Nc4ncc5c(=O)n(-c6c(Cl)cccc6Cl)c6nccn6c5n4)cc3)CC2)C1 [Example 299, 6-(2,6-dichlorophenyl)-2-({4-[2-(methylsulfonyl)-2,7-diazaspiro[3.5]non-7-yl]phenyl}amino)imidazo[1,2-a]pyrimido[5,4-e]pyrimidin-5(6H)-one]	< 10 nM
